For one series, the target named is human TRPM8 receptor (Homo sapiens (Human), UniProt Q7Z2W7). Description: Assay on TRPM8 modulators (Ca2+-sensitive dye, HEK293-TRPM8 test cells, EC50 determination). In kind it is cell-based. The following applies: Table C, structure type 3; assay according to reference example 3. The source says:
As a test cell system the human TRPM8 DNA (see plasmid pInd-M8 above) was used to prepare a stable transfixed HEK293 cell line. Here preference is for HEK293 which via the plasmid introduced offers the possibility of induction of the TRPM8 expression by means of tetracycline.
The agonisation or antagonisation of the receptor can be quantified by means of a Ca^2+-sensitive dye (e.g. FURA, Fluo-4, etc.).
To begin with, in a manner known per se, in cell culture flasks a fresh culture of transformed HEK cells is prepared. The HEK293-TRPM8 test cells are removed using trypsin from the cell culture flasks and 40 000 cells/well are sown with 100 μl medium in 96-well plates (Greiner #655948 Poly-D-lysine coated). In order to induce the TRPM8 receptor the growth medium tetracycline is mixed in (DMEM/HG, 10% FCS tetracycline-free, 4 mM L-glutamine, 15 μg/ml blasticidin, 100 μg/ml hygromycin B, 1 μg/ml tetracycline). The next day the cells are charged with Fluo-4Am dye and the test is performed.
The test substances are used in triplicate in concentrations of between 0.1 and 200 μm in the assay. Normally the compounds are kept ready in DMSO solutions and diluted for the assay to a maximum DMSO concentration of 2%.

The conditions of series [1]: cited from earlier work; for cooling action: J. Soc. Cosmet. Chem. 1978, 29, 185-200, study of approximately 1200 compounds.
Series [2] deals with panel of sensorially trained experts. Description: Sensorial assessment of toothpastes containing the flavourings (Examples S-1 to S-4). In kind it is in vivo, human. To be noted: flavouring 1.2 wt. % in toothpaste base, usage conditions. As for the experimental part: The flavourings obtained in this way were worked into a standard silica toothpaste base in a concentration of 1.2 wt. %. The toothpastes were tested by a panel of sensorially trained experts under usage conditions. The sensorial assessments were as follows: very pleasant, rich and voluminous minty freshness with a comparatively fast onset, strong and marked and comparatively very long-lasting cooling fresh impression, wherein it was noticeable that the sensation of coldness was rapidly perceptible in the whole of the oral cavity. Additionally the flavour was assessed as being softer and more neutral and less sharp than without the compounds according to the invention.
The flavourings in a concentration of 1.2% were worked into a toothpaste base comprising an amount of 65% of sodium bicarbonate. The toothpastes were tested under usage conditions and assessed by a panel of sensorially trained experts. In each case a pleasant, powerful spearmint flavour in combination with a voluminous and long-lasting fresh taste was noted.
The flavourings obtained in this way were in each case worked into a standard silica toothpaste base in a concentration of 1.2 wt. %. The toothpastes were tested by a panel of sensorially trained experts under usage conditions. […]

Consider 18 compounds from patent US10584134B2, “Use of physiological cooling active ingredients, and agents containing such active ingredients” (SYMRISE AG, priority 2009, dated 2020).

Structures are written as SMILES.

Sequence of human TRPM8 receptor (Q7Z2W7 whole entry): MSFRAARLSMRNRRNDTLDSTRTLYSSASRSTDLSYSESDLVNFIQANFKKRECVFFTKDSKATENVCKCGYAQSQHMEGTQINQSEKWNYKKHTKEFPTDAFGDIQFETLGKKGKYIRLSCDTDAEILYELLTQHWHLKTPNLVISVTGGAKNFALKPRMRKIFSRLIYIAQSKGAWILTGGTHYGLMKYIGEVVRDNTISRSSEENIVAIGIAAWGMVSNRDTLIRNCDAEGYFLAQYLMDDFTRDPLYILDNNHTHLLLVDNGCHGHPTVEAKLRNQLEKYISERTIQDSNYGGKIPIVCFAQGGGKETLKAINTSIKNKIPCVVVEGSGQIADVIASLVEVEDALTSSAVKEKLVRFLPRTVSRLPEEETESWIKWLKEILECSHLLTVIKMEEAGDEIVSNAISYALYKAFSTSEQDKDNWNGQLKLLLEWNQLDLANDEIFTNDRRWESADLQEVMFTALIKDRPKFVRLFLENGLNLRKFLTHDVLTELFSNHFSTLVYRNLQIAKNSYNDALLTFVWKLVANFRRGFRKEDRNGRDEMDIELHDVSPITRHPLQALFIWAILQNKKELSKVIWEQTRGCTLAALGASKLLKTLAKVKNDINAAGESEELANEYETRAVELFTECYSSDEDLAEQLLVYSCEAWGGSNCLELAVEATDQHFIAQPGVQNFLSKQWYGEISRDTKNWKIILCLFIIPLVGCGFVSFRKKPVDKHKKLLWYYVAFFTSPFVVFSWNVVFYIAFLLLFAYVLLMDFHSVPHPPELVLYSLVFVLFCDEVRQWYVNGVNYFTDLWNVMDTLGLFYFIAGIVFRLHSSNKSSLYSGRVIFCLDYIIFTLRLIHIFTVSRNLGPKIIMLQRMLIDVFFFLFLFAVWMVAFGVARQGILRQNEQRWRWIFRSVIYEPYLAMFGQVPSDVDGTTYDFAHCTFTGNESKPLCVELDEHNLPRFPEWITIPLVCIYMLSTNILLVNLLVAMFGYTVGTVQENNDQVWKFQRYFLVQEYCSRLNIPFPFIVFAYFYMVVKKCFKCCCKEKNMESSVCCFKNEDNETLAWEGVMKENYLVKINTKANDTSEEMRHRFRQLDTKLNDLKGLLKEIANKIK

`Cc1ccc(/C=C/C(=O)N(c2ccccc2)c2ccccc2)cc1` [Compound 3-34, 4-methylcinammic acid-N,N-diphenylamide]: the EC50 (commonly the concentration at which the effect is half-maximal) on human TRPM8 receptor was found to be 4000 nM.

Turning to `Cc1ccc(/C=C/C(=O)N(c2ccccc2)C(C)C)cc1` [Compound 3-36], on human TRPM8 receptor, the EC50 was determined as 1800 nM.

As to `COc1cccc(/C=C/C(=O)N(c2ccccn2)C2CCCCC2)c1` [Compound 3-37], at human TRPM8 receptor, the EC50 turned out to be 3000 nM.

`COc1cccc(/C=C/C(=O)N(c2ccccn2)C2CCCCC2)c1OC` [Compound 3-38] had a half-maximal effective concentration (EC50) at human TRPM8 receptor of 700 nM.

As for `COc1cccc(/C=C/C(=O)N(c2ccccc2)C2CCCCC2)c1OC` [Compound 3-39], it took 2600 nM to reach a half-maximal effect on human TRPM8 receptor (EC50).

`COc1cccc(/C=C/C(=O)N(c2ccccc2)c2ccccc2)c1OC` [Compound 3-40]: it took 5900 nM to reach a half-maximal effect at human TRPM8 receptor (EC50).

The compound `O=C(/C=C/c1ccccc1Cl)N(c1ccccn1)C1CCCCC1` [Compound 3-41] gave an EC50 at human TRPM8 receptor of 700 nM. Compared with the last compound, the EC50 is about 8.4-fold lower.

As for `COc1ccc(CCC(=O)N(c2ccccn2)C2CCCCC2)cc1` [Compound 3-42], the EC50 at human TRPM8 receptor came out at 3300 nM.

With `O=C(CCc1ccc2c(c1)OCO2)N(c1ccccc1)c1ccccc1` [Compound 3-43], the EC50 on human TRPM8 receptor was 6800 nM.

In the case of `O=C(COc1ccc2c(c1)OCO2)N(c1ccccc1)C1CCCCC1` [Compound 3-44], on human TRPM8 receptor, it took 1000 nM to reach a half-maximal effect (EC50).

At human TRPM8 receptor, `COc1ccc(OCC(=O)N(c2ccccn2)C2CCCCC2)cc1` [Compound 3-45] came in with a 50% effective concentration (EC50) of 4000 nM.

`O=C(COc1ccccc1)N(c1nccs1)C1CCCCC1` [Compound 3-46] came in with an EC50 on human TRPM8 receptor of 3000 nM. The EC50 values of the last two compounds are within 1.5-fold of each other.

With `Cc1ccccc1N(Cc1ccccc1)C(=O)Cc1ccccc1` [Compound 3-47], it took 1700 nM to reach a half-maximal effect at human TRPM8 receptor (EC50).

The compound `COc1ccc(C(=O)N(c2ccccn2)C2CCCCC2)cc1` [Compound 3-48] displayed an EC50 on human TRPM8 receptor of 10900 nM.

On to `O=C(c1c(Cl)cccc1Cl)N(Cc1ccccc1)c1ccccn1` [Compound 3-49], for which the EC50 at human TRPM8 receptor stood at 5500 nM.

In the case of `CC1CCC(C(C)C)C(C(=O)NCC(=O)O)C1` [N^α-(L-menthanecarbonyl)glycine], in series [1], the cooling action result is on record as “very weak cooling action”.

Consider `CCOC(=O)CNC(=O)C1CC(C)CCC1C(C)C` (centres unmarked) [WS5, N-[[5-methyl-2-(1-methylethyl)cyclohexyl]carbonyl]glycine ethyl ester], for which the cooling action result in series [1] is on record as “most strongly cooling active ingredients”. The irritancy entry in series [1] (US 2005/0222256) is reported as “strongly irritant”.

Regarding `CCNC(=O)C1CC(C)CCC1C(C)C` (centres unmarked) [WS-3, menthane-3-carboxylic acid-N-ethylamide], the cooling action result in series [1] is “most strongly cooling active ingredients”. Also, the “sensorial assessment of cooling fresh impression” value in series [2] is “less powerful, less voluminous and less long-lasting”.
